Values joined by “and” are separate entries in the source; they are usually repeats but may differ in a detail not shown here. Equal entries are not always repeated.
Key:
Microsomal stability = format: in vitro ADME; conditions: mouse, liver microsomes; ~1 µM, NADPH, 37 °C; read-out: t1/2 in murine liver microsomes
Procedure: Quantitative determination of LP-182 stability in murine liver microsomes was performed by the University of Michigan Pharmacokinetics Core. […]; in 100 mM phosphate buffer, 3 mM MgCl2) to a final concentration of […], and then reactions were sampled over 60 min. Aliquots were removed at the designated time points, quenched by addition of 4 volumes of cold acetonitrile, then centrifuged at 10,000 x g for 5 min to pellet protein precipitates. […] The natural log peak area ratio of compound to internal standard (Acmpd/AIstd) was plotted against time to determine pharmacokinetic properties of microsomal stability. All analyses, data processing, and calculations were performed and provided by the core. Data was generated from a single independent experiment.

[1] = tested on: phosphorylated AKT (pAKT; pS473) in SET-2 cells; assay: Phospho-flow cytometry of pAKT in SET-2 cells; format: cell-based, human; conditions: 5 μM, 16 h
Procedure: The human megakaryoblastic cell line, SET-2 (ATCC), was maintained in RPMI 1640 supplemented with 20% FBS and incubated for 16 h at 10^6 cells mL^−1 with LP-182 or vehicle (DMSO; dimethyl sulfoxide), then washed in ice-cold PBS, and collected for flow cytometry analysis. Single-cell suspensions of mouse spleen were prepared from MPL^W515L MF mice (below) in RPMI 1640 supplemented with 5% FCS. Red blood cells were lysed by ammonium chloride-mediated red cell lysis (RCL) buffer and passed through a nylon mesh, and then cells were counted. For intracellular phospho-protein staining, SET-2 or spleen cells were fixed and then permeabilized using BD Phospho-flow fixation buffer and Perm-Buffer III (BD biosciences) according to the manufacturer’s protocol. Intracellular phospho-protein staining was performed using fluorochrome-conjugated antibodies, pAKT (pS473)-Alexa Fluor 647 (MB89-61) or pERK1/2 (pT202/pY204)-Alexa Fluor 647 (20 A). All phospho-flow antibodies were purchased from BD Biosciences. […] Flow cytometry was performed on a FACS Fortessa (Becton, Dickinson and Co.) using FACSDiVa software, and data analyzed using FlowJo software (Tree Star). […]

[2] = tested on: MPL^W515L mouse model of myelofibrosis; assay: MPL^W515L MF mouse model: tibia bone marrow ADC by diffusion-weighted MRI; format: in vivo; conditions: MPL^W515L mice, oral 400 mg kg^−1 daily
Procedure: Generation of the MPL^W515L mutant MF mouse model was similar to previously described methods. Briefly, female donor BALB/c mice were treated with 5-fluorouracil at 150 mg kg^−1 intraperitoneal for 5 d before harvesting bone marrow. Hematopoietic stem and progenitor cells were enriched with CD117 magnetic beads (Miltenyi Biotec), transduced with retrovirus containing MSCV-hMPL W515L-IRES-GFP, then 50,000 transduced HSPCs along with 300,000 total non-stem cells were injected intravenously into lethally irradiated female BALB/c recipients. Development of MF was evaluated by spleen volumes using MRI beginning ~14 d following bone marrow transplantation (BMT) as outlined below, continuing weekly until end of the study. Mice were separated into equal groups based on spleen size ~14–21 d post-BMT, then treated with vehicle (Maisine CC) or LP-182 at 400 mg kg^−1 daily by oral gavage for 14–28 d or until mice were euthanized using guidelines for end stage illness and humane endpoints. Untreated healthy control animals were used for experimental comparisons. […] Soluble protein extracts were isolated by centrifugation at 15,000 x g for 15 min at 4 °C, quantified using Micro BCA protein assay (Thermo Scientific), then mixed with reducing 6X SDS-PAGE loading dye, heated for 8 min at 95 °C, and stored at −20 °C until immuno-blot analysis. […]

[3] = tested on: MPL^W515L mouse model of myelofibrosis; assay: MPL^W515L MF mouse model Study 2: spleen volume by MRI; format: in vivo; conditions: for Spleen volume/body weight ratio: Study 2, individual animals, Supplementary Figure 11a
Procedure: Generation of the MPL^W515L mutant MF mouse model was similar to previously described methods. Briefly, female donor BALB/c mice were treated with 5-fluorouracil at 150 mg kg^−1 intraperitoneal for 5 d before harvesting bone marrow. Hematopoietic stem and progenitor cells were enriched with CD117 magnetic beads (Miltenyi Biotec), transduced with retrovirus containing MSCV-hMPL W515L-IRES-GFP, then 50,000 transduced HSPCs along with 300,000 total non-stem cells were injected intravenously into lethally irradiated female BALB/c recipients. Development of MF was evaluated by spleen volumes using MRI beginning ~14 d following bone marrow transplantation (BMT) as outlined below, continuing weekly until end of the study. Mice were separated into equal groups based on spleen size ~14–21 d post-BMT, then treated with vehicle (Maisine CC) or LP-182 at 400 mg kg^−1 daily by oral gavage for 14–28 d or until mice were euthanized using guidelines for end stage illness and humane endpoints. Untreated healthy control animals were used for experimental comparisons. Tissues were harvested and processed for flow cytometry (as described above), LCMS/MS, immuno-blotting, and histological analysis (as described in Supplementary Methods) at the defined study endpoint(s), approximately 1–2 h post-treatment with vehicle or LP-182. Briefly, blood samples were collected, transferred into K2-EDTA tubes (BD Microtainer), inverted gently to mix, then centrifuged at 2000 x g for 15 min. […] Dissection and bone marrow isolation from mouse femur and tibia was performed similar to previously described methods. Briefly, the hind limbs from mice were dissected, muscle and connective tissue removed, and bones were frozen at −80 °C. Femur and tibia were thawed separately, placed knee-end down in 18 gauge needle-pierced 0.5 mL microcentrifuge tubes nested inside 1.5 or 2 mL microcentrifuge tubes containing 1.4 mm ceramic beads (Fisher Scientific), then bone marrow was isolated by centrifugation at 10,000 x g for 1 min and processed for analysis by LCMS/MS (above; femur) or immuno-blotting (tibia). […] Soluble protein extracts were isolated by centrifugation at 15,000 x g for 15 min at 4 °C, quantified using Micro BCA protein assay (Thermo Scientific), then mixed with reducing 6X SDS-PAGE loading dye, heated for 8 min at 95 °C, and stored at −20 °C until immuno-blot analysis. Whole cell lysates were resolved by 10% SDS-PAGE, transferred to PVDF (Immobilon-P; MilliporeSigma), then membranes were blocked with 5% BSA (Equitech-Bio) in TBS containing 0.1% Tween-20 (TBST) for 1 h at room temperature with gentle orbital shaking. […]

O=C(NOCCOCCOCCOCCC(=O)N1CCN(c2cnc3ccc(-c4cnc(Cl)c(NS(=O)(=O)c5ccc(F)cc5)c4)cc3n2)CC1)c1ccc(F)c(F)c1Nc1ccc(I)cc1F [LP-182, N-(2-(2-(2-(3-(4-(7-(6-chloro-5-((4-fluorophenyl)sulfonamido)pyridin-3-yl)quinoxalin-2-yl)piperazin-1-yl)-3-oxopropoxy)ethoxy)ethoxy)ethoxy)-3,4-difluoro-2-((2-fluoro-4-iodophenyl)amino)benzamide]
half-life (Microsomal stability): ~8 min
decrease of downstream activation of AKT [1]: ~ 50%
tibia bone marrow ADC change [2]: variable, spatially-dependent increase in ADC values
attenuation of spleen volume increase compared to vehicle ([3]; Study 2, MPL^W515L mice, oral 400 mg kg^−1 daily, after 14 d): ~ 35%
Spleen volume/body weight ratio ([3]; 15 Days Post-BMT): 9.2805 mm3/g and 6.788 mm3/g and 8.526 mm3/g and 6.999 mm3/g and 8.219 mm3/g and 8.1905 mm3/g and 7.226 mm3/g and 10.8805 mm3/g
Spleen volume/body weight ratio ([3]; 22 Days Post-BMT): 22.8 mm3/g and 16.1111 mm3/g and 16.0806 mm3/g and 22.1506 mm3/g and 12.2778 mm3/g and 11.0626 mm3/g and 6.573 mm3/g and 8.03 mm3/g
Spleen volume/body weight ratio ([3]; 29 Days Post-BMT): 30.4359 mm3/g and 16.7368 mm3/g and 15.8947 mm3/g and 27.7838 mm3/g and 8.806 mm3/g and 15.337 mm3/g and 5.115 mm3/g and 6.324 mm3/g

Source: publication PMC9386018, “A lymphatic-absorbed multi-targeted kinase inhibitor for myelofibrosis therapy” (Nature Communications, 2022)
